Measured values published in patent US20240148779A1, “METHODS FOR THE TREATMENT OF PROTEINOPATHIES” (RENATUS INC., priority 2022, published 2024).

Key:
SH-SY5Y cells [1] = assay: Cytotoxicity induced by pre-aggregated Aβ42 in SH-SY5Y cells (CCK-8); assay type: cell-based; settings: Aβ42 25 μM, 48 hours, cyclodextrins 1, 2.5 and 5 mg/mL, FIG. 7
Procedure: (§1) Amyloid beta 1-42 (Aβ42) was dissolved in distilled water at a concentration of 1 mM, vortexed for 30 seconds, and then incubated at 37° C. for 7 days to induce pre-aggregation. […] ARPE-19 cells were maintained using DMEM/F12 media containing 10% fetal bovine serum, 1% Penicillin-Streptomycin, 1% HEPES, and 2.5 mM L-Glutamine. […] On the next day, the cells were treated with pre-aggregated Aβ42 at a concentration of 25 μM for 48 hours in the presence of cyclodextrins (1, 2.5, and 5 mg/mL).
Then, we investigated the effects of molecular weights of gamma-cyclodextrin oligomers on the cytotoxicity induced by protein aggregates. […] The SH-SY5Y cells were treated with pre-aggregated Aβ42 for 48 hours in the presence of cyclodextrins (5 mg/mL).

ARPE-19 cells = assay: Cytotoxicity induced by pre-aggregated Aβ42 in ARPE-19 cells (CCK-8); assay type: cell-based; settings: ARPE-19, Aβ42 25 μM, 48 hours, cyclodextrins 1, 2.5 and 5 mg/mL, FIG. 7
Procedure: as §1

SH-SY5Y cells [2] = assay: Cytotoxicity induced by pre-aggregated alpha-synuclein in SH-SY5Y cells; assay type: cell-based; settings: αSyn 1 μM, 24 hours, cyclodextrins 1, 2.5 and 5 mg/mL, FIG. 8
Procedure: as §1
Using the SH-SY5Y cells, the cytotoxicity of aggregated alpha-synuclein (αSyn) was evaluated. The cells were treated with pre-aggregated αSyn (1 μM) for 24 hours in the presence of cyclodextrins (1, 2.5, and 5 mg/mL).

SH-SY5Y cells [3] = assay: Cytotoxicity induced by cyclodextrins in SH-SY5Y cells (CCK-8)
Procedure: HPBCD oligomer was prepared by using hydroxypropyl-beta-cyclodextrin (HPBCD) monomers with a molar substitution value between 0.4 and 0.8. […] SH-SY5Y cells were maintained using DMEM containing 10% fetal bovine serum, 1% Penicillin-Streptomycin, and retinoic acid (50 μM) to induce differentiation into neuron-like cells. Media was changed total three times (1, 3, and 5 days post-seeding) and the cells were seeded for experiments on the next day. The cells were seeded in a 96-well plate at a density of 5×10^4 cells per well. On the next day, the cells were treated with each cyclodextrin at 2.5 mg/mL, 5 mg/mL, 10 mg/mL, and 20 mg/mL for 24 hours. Cellular viability was measured using Cell Counting Kit-8 (CCK-8) and measuring the absorbance at 450 nm.

SH-SY5Y cells [4] = assay: Plasma membrane cholesterol extraction in SH-SY5Y cells; assay type: cell-based; settings: cyclodextrin 20 mg/mL, 37° C., 1 hour, FIG. 11
Procedure: Since cyclodextrin-mediated cytotoxicity is known to be caused by excessive plasma membrane cholesterol extraction and consequential membrane disruption, we investigated cholesterol extraction from the cells. […] The next day, the cells treated with cyclodextrins at a concentration of 20 mg/mL at 37° C. for 1 hour. The supernatant was collected, centrifuged at a rate of 14,000 g for 30 minutes to remove cell debris and microvesicles, and then the cholesterol concentration in the supernatant was quantified using a Cholesterol Quantification Kit (Sigma Aldrich).

TNF-α = assay: Aβ42 aggregate-induced inflammation, secreted TNF-α by ELISA in SH-SY5Y cells; assay type: cell-based; settings: Aβ42 25 μM, 24 hours, cyclodextrins 2.5 mg/mL, FIG. 12
Procedure: The pre-aggregated Aβ42 was treated at a concentration of 25 μM for 24 hours with or without cyclodextrins and enzyme-linked immunosorbent assay (ELISA) was performed to measure inflammatory cytokines secreted by the cells. […] GCD oligomer was prepared by using gamma-cyclodextrin (GCD) monomers.

| Compound | effect on cytotoxicity induced by Aβ42 aggregate (SH-SY5Y cells [1]) | effect on cytotoxicity induced by Aβ42 aggregate (ARPE-19 cells) | effect on cytotoxicity induced by αSyn aggregate (SH-SY5Y cells [2]) | cellular viability (SH-SY5Y cells [3]; SH-SY5Y, cyclodextrin 20 mg/mL, 24 hours, FIG. 10) [%] | level of plasma membrane cholesterol extraction (SH-SY5Y cells [4]) | level of secreted TNF-α (TNF-α) | cellular viability (SH-SY5Y cells [3]; human, 24 h, 20 mg/mL) [%] |
| --- | --- | --- | --- | --- | --- | --- | --- |
| hydroxypropyl-gamma-cyclodextrin [HPGCD] | did not show such effect | did not show such effect | less effective | 81.38 | no significance compared to PBS | did not show significant effect |  |
| CC(O)COC[C@H]1O[C@@H]2O[C@H]3[C@H](O)[C@@H](O)[C@@H](O[C@H]4[C@H](O)[C@@H](O)[C@@H](O[C@H]5[C@H](O)[C@@H](O)[C@@H](O[C@H]6[C@H](O)[C@@H](O)[C@@H](O[C@H]7[C@H](O)[C@@H](O)[C@@H](O[C@H]8[C@H](O)[C@@H](O)[C@@H](O[C@H]1[C@H](O)[C@H]2O)O[C@@H]8COCC(C)O)O[C@@H]7COCC(C)O)O[C@@H]6COCC(C)O)O[C@@H]5COCC(C)O)O[C@@H]4COCC(C)O)O[C@@H]3COCC(C)O (stereo partly drawn) [HPBCD, hydroxypropyl-beta-cyclodextrin] |  |  |  |  |  | did not show significant effect | 43.25 |
